pIC50: −log10 of the molar value.
Biological target: VEGFR-2 kinase (Homo sapiens (Human), UniProt P35968)
Assay: Test of small molecule compounds for inhibiting the activity of VEGFR-2 kinase
Assay type: biochemical
Settings: class symbols A-D
Protocol: Test of Small Molecule Compounds for Inhibiting the Activity of VEGFR-2 Kinase
The test was carried out as follows:
2. 2.5 μl of the gradient-diluted compounds was taken with a transfer pipette to a 384-well plate,
3. Addition of enzyme: 5 μl of 2×VEGFR-2 kinase was taken with a transfer pipette to the corresponding reaction well of the 384-well plate, which was mixed and pre-reacted at room temperature for 30 min,
5. Negative control: 2.5 μl/well 4× substrate/ATP Mix and 7.5 μl 1× Kinase Assay Buffer were added to the wells of the 384-well plate,
Positive control: 2.5 μl/well 4× substrate/ATP Mix, 2.5 μl/well 1× Kinase Assay Buffer containing 4% DMSO, and 5 μl/well 2×VEGFR-2 solution were added to the 384-well plate. The final concentration of DMSO in the reaction system is […],
6. The mixture was mixed well and then centrifuged and reacted at room temperature in dark for 60 min,
9. The 384-well plate was placed into the Envision plate reader and the signal was detected using the appropriate program,

VEGFR-2 kinase, sequence (P35968 20-1356): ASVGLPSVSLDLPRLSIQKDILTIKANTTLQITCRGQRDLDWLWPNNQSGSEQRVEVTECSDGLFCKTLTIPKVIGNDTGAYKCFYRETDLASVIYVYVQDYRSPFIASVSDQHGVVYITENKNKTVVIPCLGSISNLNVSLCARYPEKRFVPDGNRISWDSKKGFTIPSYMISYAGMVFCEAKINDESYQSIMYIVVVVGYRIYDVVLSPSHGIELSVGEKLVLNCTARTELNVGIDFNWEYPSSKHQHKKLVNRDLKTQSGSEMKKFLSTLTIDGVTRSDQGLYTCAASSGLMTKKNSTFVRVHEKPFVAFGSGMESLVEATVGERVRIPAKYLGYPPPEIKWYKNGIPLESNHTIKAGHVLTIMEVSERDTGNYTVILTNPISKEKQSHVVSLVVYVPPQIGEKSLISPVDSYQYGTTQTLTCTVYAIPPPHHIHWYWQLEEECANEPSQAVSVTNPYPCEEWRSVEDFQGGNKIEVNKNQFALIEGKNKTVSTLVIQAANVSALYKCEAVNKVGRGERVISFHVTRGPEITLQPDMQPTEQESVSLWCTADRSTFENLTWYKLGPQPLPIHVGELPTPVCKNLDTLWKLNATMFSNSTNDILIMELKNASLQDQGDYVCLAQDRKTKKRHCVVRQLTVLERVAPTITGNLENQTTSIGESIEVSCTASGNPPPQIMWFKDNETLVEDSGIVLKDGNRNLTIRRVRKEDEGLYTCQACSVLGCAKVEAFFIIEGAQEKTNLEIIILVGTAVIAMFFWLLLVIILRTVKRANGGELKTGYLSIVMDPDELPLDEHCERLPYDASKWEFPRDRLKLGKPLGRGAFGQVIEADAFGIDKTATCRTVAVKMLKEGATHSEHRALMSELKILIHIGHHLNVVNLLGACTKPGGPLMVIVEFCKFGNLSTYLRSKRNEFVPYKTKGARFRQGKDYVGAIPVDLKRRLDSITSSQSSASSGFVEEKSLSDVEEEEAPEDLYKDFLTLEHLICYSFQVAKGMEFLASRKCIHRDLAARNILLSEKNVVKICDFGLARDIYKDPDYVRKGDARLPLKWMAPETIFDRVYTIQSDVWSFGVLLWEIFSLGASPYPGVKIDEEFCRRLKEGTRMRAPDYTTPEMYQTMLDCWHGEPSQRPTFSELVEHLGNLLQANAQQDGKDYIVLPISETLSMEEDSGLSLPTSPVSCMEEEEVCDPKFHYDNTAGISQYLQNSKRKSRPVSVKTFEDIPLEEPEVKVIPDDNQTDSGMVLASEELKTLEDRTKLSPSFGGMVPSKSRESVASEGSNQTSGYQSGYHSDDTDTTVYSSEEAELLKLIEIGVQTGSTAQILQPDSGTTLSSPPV

pIC50 | Compound
> 7.30 | COc1cc2ncnc(Oc3ccc(NC(=O)NC4CCCCC4)c(Cl)c3)c2c2c1OCCO2 [Example 33, 1-(2-chloro-4-((5-methoxy-2,3-dihydro-[1,4]dioxino[2,3-f]quinazolin-10-yl)oxy)phenyl)-3-cyclohexylurea]
> 7.30 | COCCOc1cc2ncnc(Nc3ccc(NC(=O)NC4CC4)c(Cl)c3)c2c2c1OCCO2 [Example 34, 1-(2-chloro-4-((5-(2-methoxyethoxy)-2,3-dihydro-[1,4]dioxino[2,3-f]quinazolin-10-yl)amino)phenyl)-3-cyclopropylurea]
> 7.30 | COCCOc1cc2ncnc(Nc3ccc(NC(=O)Nc4cccc(OC)c4)c(Cl)c3)c2c2c1OCCO2 [Example 35, 1-(2-chloro-4-((5-(2-methoxyethoxy)-2,3-dihydro-[1,4]dioxino[2,3-f]quinazolin-10-yl)amino)phenyl)-3-(3-methoxyphenyl)urea]
< 5.30 | COCCOc1cc2ncnc(Nc3ccc(NC(=O)Nc4ccccn4)c(Cl)c3)c2c2c1OCCO2 [Example 36, 1-(2-chloro-4-((5-(2-methoxyethoxy)-2,3-dihydro-[1,4]dioxino[2,3-f]quinazolin-10-yl)amino)phenyl)-3-(pyridin-2-yl)urea]
> 7.30 | COCCOc1cc2ncnc(Nc3ccc(NC(=O)Nc4ccccc4)c(Cl)c3)c2c2c1OCCO2 [Example 37, 1-(2-chloro-4-((5-(2-methoxyethoxy)-2,3-dihydro-[1,4]dioxino[2,3-f]quinazolin-10-yl)amino)phenyl)-3-phenylurea]
> 7.30 | COCCOc1cc2ncnc(Nc3ccc(NC(=O)Nc4ccc(F)cc4)c(Cl)c3)c2c2c1OCCO2 [Example 38, 1-(2-chloro-4-((5-(2-methoxyethoxy)-2,3-dihydro-[1,4]dioxino[2,3-f]quinazolin-10-yl)amino)phenyl)-3-(4-fluorophenyl)urea]
> 7.30 | COCCOc1cc2ncnc(Nc3ccc(NC(=O)Nc4cc(C)no4)c(Cl)c3)c2c2c1OCCO2 [Example 39, 1-(2-chloro-4-((5-(2-methoxyethoxy)-2,3-dihydro-[1,4]dioxino[2,3-f]quinazolin-10-yl)amino)phenyl)-3-(3-methylisoxazol-5-yl)urea]
6.30 to 7.30 | COCCOc1cc2ncnc(Nc3ccc(NC(=O)NC(C)C)c(Cl)c3)c2c2c1OCCO2 [Example 40, 1-(2-chloro-4-((5-(2-methoxyethoxy)-2,3-dihydro-[1,4]dioxino[2,3-f]quinazolin-10-yl)amino)phenyl)-3-isopropylurea]
> 7.30 | COCCOc1cc2ncnc(Nc3ccc(NC(=O)Nc4ccnc(OC)c4)c(Cl)c3)c2c2c1OCCO2 [Example 41, 1-(2-chloro-4-((5-(2-methoxyethoxy)-2,3-dihydro-[1,4]dioxino[2,3-f]quinazolin-10-yl)amino)phenyl)-3-(2-methoxypyridin-4-yl)urea]
> 7.30 | COCCOc1cc2ncnc(Nc3ccc(NC(=O)Nc4ccc(C(F)(F)F)cc4F)c(Cl)c3)c2c2c1OCCO2 [Example 43, 1-(2-chloro-4-((5-(2-methoxyethoxy)-2,3-dihydro-[1,4]dioxino[2,3-f]quinazolin-10-yl)amino)phenyl)-3-(2-fluoro-4-(trifluoromethyl)phenyl)urea]
< 5.30 | COCCOc1cc2ncnc(Nc3ccc(NC(=O)Nc4ccc(Oc5ccccc5)cc4)c(Cl)c3)c2c2c1OCCO2 [Example 44, 1-(2-chloro-4-((5-(2-methoxyethoxy)-2,3-dihydro-[1,4]dioxino[2,3-f]quinazolin-10-yl)amino)phenyl)-3-(4-(phenoxy)phenyl)urea]
> 7.30 | COCCOc1cc2ncnc(Oc3ccc(NC(=O)Nc4cccc(OC)c4)cc3Cl)c2c2c1OCCO2 [Example 51, 1-(3-chloro-4-((5-(2-methoxyethoxy)-2,3-dihydro-[1,4]dioxino[2,3-f]quinazolin-10-yl)oxy)phenyl)-3-(3-methoxyphenyl)urea]
> 7.30 | COCCOc1cc2ncnc(Oc3ccc(NC(=O)Nc4ccnc(OC)c4)cc3)c2c2c1OCCO2 [Example 52, 1-(4-((5-(2-methoxyethoxy)-2,3-dihydro-[1,4]dioxino[2,3-f]quinazolin-10-yl)oxy)phenyl)-3-(2-methoxypyridin-4-yl)urea]
> 7.30 | COCCOc1cc2ncnc(Oc3ccc(NC(=O)Nc4ccnc(OC)c4)cc3Cl)c2c2c1OCCO2 [Example 53, 1-(3-chloro-4-((5-(2-methoxyethoxy)-2,3-dihydro-[1,4]dioxino[2,3-f]quinazolin-10-yl)oxy)phenyl)-3-(2-methoxypyridin-4-yl)urea]
> 7.30 | COCCOc1cc2ncnc(Oc3ccc(NC(=O)NC4CCC4)c(Cl)c3)c2c2c1OCCO2 [Example 54, 1-(2-chloro-4-((5-(2-methoxyethoxy)-2,3-dihydro-[1,4]dioxino[2,3-f]quinazolin-10-yl)oxy)phenyl)-3-cyclobutylurea]
> 7.30 | COCCOc1cc2ncnc(Oc3ccc(NC(=O)NC4CCCC4)c(Cl)c3)c2c2c1OCCO2 [Example 55, 1-(2-chloro-4-((5-(2-methoxyethoxy)-2,3-dihydro-[1,4]dioxino[2,3-f]quinazolin-10-yl)oxy)phenyl)-3-cyclopentylurea]
> 7.30 | COCCOc1cc2ncnc(Oc3ccc(NC(=O)NC4CCCCC4)c(Cl)c3)c2c2c1OCCO2 [Example 56, 1-(2-chloro-4-((5-(2-methoxyethoxy)-2,3-dihydro-[1,4]dioxino[2,3-f]quinazolin-10-yl)oxy)phenyl)-3-cyclohexylurea]
> 7.30 | COCCOc1cc2ncnc(Oc3ccc(NC(=O)Nc4cc(C(F)(F)F)ccc4F)c(F)c3)c2c2c1OCCO2 [Example 57, 1-(2-fluoro-4-((5-(2-methoxyethoxy)-2,3-dihydro-[1,4]dioxino[2,3-f]quinazolin-10-yl)oxy)phenyl)-3-(2-fluoro-5-(trifluoromethyl)phenyl)urea]
> 7.30 | COCCOc1cc2ncnc(Oc3ccc(NC(=O)Nc4cc(C(F)(F)F)ccc4F)cc3F)c2c2c1OCCO2 [Example 58, 1-(3-fluoro-4-((5-(2-methoxyethoxy)-2,3-dihydro-[1,4]dioxino[2,3-f]quinazolin-10-yl)oxy)phenyl)-3-(2-fluoro-5-(trifluoromethyl)phenyl)urea]
> 7.30 | COCCOc1cc2ncnc(Oc3ccc(NC(=O)Nc4ccc(Cl)c(C(F)(F)F)c4)cc3F)c2c2c1OCCO2 [Example 59, 1-(4-chloro-3-(trifluoromethyl)phenyl)-3-(3-fluoro-4-((5-(2-methoxyethoxy)-2,3-dihydro-[1,4]dioxino[2,3-f]quinazolin-10-yl)oxy)phenyl)urea]
6.30 to 7.30 | COCCOc1cc2ncnc(Oc3ccc(NC(=O)Nc4ccc(Cl)c(C(F)(F)F)c4)cn3)c2c2c1OCCO2 [Example 60, 1-(4-chloro-3-(trifluoromethyl)phenyl)-3-(6-((5-(2-methoxyethoxy)-2,3-dihydro-[1,4]dioxino[2,3-f]quinazolin-10-yl)oxy)pyridin-3-yl)urea]
> 7.30 | O=C(Nc1ccc(Nc2ncnc3cc(OCCCN4CCCC4)c4c(c23)OCCO4)cc1Cl)NC1CC1 [Example 61, 1-(2-chloro-4-((5-(3-(pyrrolidin-1-yl)propoxy)-2,3-dihydro-[1,4]dioxino[2,3-f]quinazolin-10-yl)amino)phenyl)-3-cyclopropylurea]
> 7.30 | O=C(Nc1ccc(Nc2ncnc3cc(OCCCN4CCOCC4)c4c(c23)OCCO4)cc1Cl)NC1CC1 [Example 63]
> 7.30 | O=C(Nc1ccc(Cl)c(C(F)(F)F)c1)Nc1ccc(Oc2ncnc3cc(OCCCN4CCOCC4)c4c(c23)OCCO4)cc1F [Example 69, 1-(4-chloro-3-(trifluoromethyl)phenyl)-3-(2-fluoro-4-((5-(3-morpholinopropoxy)-2,3-dihydro-[1,4]dioxino[2,3-f]quinazolin-10-yl)oxy)phenyl)urea]
5.30 to 6.30 | O=C(Nc1ccc(Oc2ncnc3cc(OCCN4CCOCC4)c4c(c23)OCCO4)cc1)Nc1ccc(Cl)c(C(F)(F)F)c1 [Example 72, 1-(4-chloro-3-(trifluoromethyl)phenyl)-3-(4-((5-(2-morpholinoethoxy)-2,3-dihydro-[1,4]dioxino[2,3-f]quinazolin-10-yl)oxy)phenyl)urea]
> 7.30 | O=C(Nc1ccc(Oc2ncnc3cc(OCCCN4CCOCC4)c4c(c23)OCCO4)cc1)Nc1ccc(F)c(Cl)c1 [Example 74, 1-(3-chloro-4-fluorophenyl)-3-(4-((5-(3-morpholinopropoxy)-2,3-dihydro-[1,4]dioxino[2,3-f]quinazolin-10-yl)oxy)phenyl)urea]
> 7.30 | O=C(Nc1ccc(Oc2ncnc3cc(OCCCN4CCOCC4)c4c(c23)OCCO4)cc1)Nc1ccc(F)c(C(F)(F)F)c1 [Example 75, 1-(4-fluoro-3-(trifluoromethyl)phenyl)-3-(4-((5-(3-morpholinopropoxy)-2,3-dihydro-[1,4]dioxino[2,3-f]quinazolin-10-yl)oxy)phenyl)urea]
< 5.30 | O=C(Nc1ccc(Oc2ncnc3cc(OCCN4CCCC4)c4c(c23)OCCO4)cc1)Nc1cc(C(F)(F)F)ccc1F [Example 76, 1-(2-fluoro-5-(trifluoromethyl)phenyl)-3-(4-((5-(2-(tetrahydropyrrol-1-yl)ethoxy)-2,3-dihydro-[1,4]dioxino[2,3-f]quinazolin-10-yl)oxy)phenyl)urea]
> 7.30 | CCOc1cc2ncnc(Oc3ccc(NC(=O)Nc4cc(C(F)(F)F)ccc4F)cc3)c2c2c1OCCO2 [Example 77, 1-(4-((5-ethoxy-2,3-dihydro-[1,4]dioxino[2,3-f]quinazolin-10-yl)oxy)phenyl)-3-(2-fluoro-5-(trifluoromethyl)phenyl)urea]
